# Measured values from the supplement of paper PMC5412046.
# Structures can show the parent of a compound that is named as a salt.
# System: SB.msgc-1
# Assay: AC50 for growth inhibition (viability) (log10 M); higher = less potent
# Settings: SB.msgc-1 (sporadic gastric cancer)
# How it was run: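 In 1536-well plates, each well held 500 patient-derived gastric cancer cells (hereditary or sporadic) in 5 μL medium. Compound in DMSO, 23 nL per well, was pinned in 11 threefold dilutions starting at a final 46 μM. Following 48 h of exposure, cells had CellTiter-Glo for 30 min at room temperature before ViewLux luminescence reading. Only high-quality curve classes from four-parameter fits of DMSO-normalised viability gave the log half-maximal activity concentration.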
row,SMILES,AC50 for growth inhibition (log10 M)
1,COc1cc2c(cc1OC)CC(=O)N(CCCN(C)C[C@H]1Cc3cc(OC)c(OC)cc31)CC2.Cl [Ivabradine hydrochloride],-4.58
2,CCOc1ccc(Nc2nc(-c3c(C)nc4ccccn34)cs2)cc1 [JK 184],-6.43
3,N#CC(c1ccnc(NCCc2cccnc2)n1)c1nc2ccccc2s1 (stereo not drawn) [JNK Inhibitor V],-4.73
4,C[S+](=O)([O-])N(Cc1ccco1)CC(O)Cn1c2ccccc2c2ccccc21 (stereo not drawn) [KL001],-4.68
5,CCCNC(=O)Nc1ccc(Oc2ncnc3cc(OC)c(OC)cc23)cc1Cl [KRN-633],-4.68
6,O=C/1\C=C(/OC(=C1)/C2=C3SC4=C(SC3=CC=C2)C=CC=C4)N5CCOCC5 [KU-0064],-4.63
7,CCc1c(O)cc(O)c(C(=O)c2ccc(OCCN3CCOCC3)c(OC)c2)c1CC(=O)N(CCOC)CCOC [KW-2478],-6.58
8,CC(=O)N1CCN(c2ccc(OC[C@H]3CO[C@](Cn4ccnc4)(c4ccc(Cl)cc4Cl)O3)cc2)CC1 [Ketoconazole],-4.83
9,CC(C(=O)O)c1cccc(C(=O)c2ccccc2)c1 (stereo not drawn) [Ketoprofen],-5.03
10,O=C(CS(=O)Cc1ccco1)NC/C=C\COc1cc(CN2CCCCC2)ccn1 (stereo not drawn) [Lafutidine],-5.08
11,C[S+](=O)([O-])CCNCc1ccc(-c2ccc3ncnc(Nc4ccc(OCc5cccc(F)c5)c(Cl)c4)c3c2)o1 [Lapatinib],-7.93
12,C[S+](=O)([O-])c1cc(F)cc2c3c(n(Cc4ccc(Cl)cc4)c12)[C@@H](CC(=O)O)CC3 [Laropiprant],-5.43
13,CCC[C@H](Nc1nc(-c2ccc(NC(=O)NCC)c(OC)c2)ncc1C)c1cccnc1 [Lexibulin hydrochloride],-7.83
14,CC1(C)Cc2c(-c3ccccc3)c(-c3ccc(Cl)cc3)c(CC(=O)O)n2C1 [Licofelone],-4.73
15,O=NN(CCCl)C(=O)NC1CCCCC1 [Lomustine],-4.83
16,CN(C)C(=O)C(CCN1CCC(O)(c2ccc(Cl)cc2)CC1)(c1ccccc1)c1ccccc1 [Loperamide hydrochloride],-4.78
17,Cc1cccc(C)c1OCC(=O)N[C@@H](Cc1ccccc1)[C@@H](O)C[C@H](Cc1ccccc1)NC(=O)[C@H](C(C)C)N1CCCNC1=O [Lopinavir],-4.73
18,Clc3cc4CCc1cccnc1C(=C2/CCN(CC2)C(=O)OCC)\c4cc3 [Loratadine],-4.73
19,CC[C@H](C)C(=O)O[C@H]1C[C@@H](C)\C=C2\C=C/[C@H](C)[C@H](CC[C@@H]3C[C@@H](O)CC(=O)O3)[C@@H]12 [Lovastatin],-4.73
20,CCCCC(F)(F)[C@@]1(O)CC[C@H]2[C@@H](CC(=O)[C@@H]2CCCCCCC(=O)O)O1 [Lubiprostone],-4.78
21,Cn1cc(/C=C/C(=O)c2cccc(F)c2)cc1/C=C/C(=O)NO [MC-1568],-4.88
22,O=C(O)CCC1CCC(c2cc(F)ccc2F)([S+](=O)([O-])c2ccc(Cl)cc2)CC1 (stereo not drawn) [MK-0752],-4.98
23,C=CCn1c(=O)c2cnc(Nc3ccc(N4CCN(C)CC4)cc3)nc2n1-c1cccc(C(C)(C)O)n1 [MK-1775],-6.43
24,O=C(O)Cn1nnc(-c2cc(N3CCC(Oc4cc(F)ccc4Br)CC3)no2)n1 [MK-8245],-5.48

row,SMILES,AC50 for growth inhibition (log10 M)
1,N[S+](=O)([O-])OC[C@@H]1C[C@@H](n2ccc3c(N[C@H]4CCc5ccccc54)ncnc32)C[C@@H]1O [MLN-4924],-5.48
2,OC(=O)C1=CC=C(NC2=NC3=C(C\N=C(/C4=CC(=CC=C34)Cl)C5=C(F)C=CC=C5F)C=N2)C=C1 [MLN-8054],-4.78
3,Cn1cc(-c2ccncc2)c(-c2ccc(OCc3ccc4ccccc4n3)cc2)n1 [MP-10],-5.13
4,Cc1ccc(NC(=O)c2ccc(CN3CCN(C)CC3)cc2)cc1Nc1nc(-c2cccnc2)cs1 [Masitinib],-4.93
5,C[C@H](Cc1ccc(O)c(O)c1)[C@@H](C)Cc1ccc(O)c(O)c1 [Masoprocol],-4.83
6,COC(=O)Nc1nc2cc(C(=O)c3ccccc3)ccc2[nH]1 [Mebendazole],-5.48
7,COc1cccc(OC)c1-c1cc(C(=O)NC2(C(=O)O)C3CC4CC(C3)CC2C4)nn1-c1ccnc2cc(Cl)ccc12 (stereo not drawn) [Meclinertant],-4.68
8,Cc1cccc(CN2CCN(C(c3ccccc3)c3ccc(Cl)cc3)CC2)c1 (stereo not drawn) [Meclizine hydrochloride],-4.68
9,CC(=O)O[C@@]1(CC[C@H]2[C@@H]3\C=C(C)/C4=C/C(=O)CC[C@]4(C)[C@H]3CC[C@]12C)C(C)=O [Megestrol acetate],-5.23
10,CC(C)(C)C1=NC2=C([NH]1)C3=CC=C(F)C=C3C4=C2\C=C/NC4=O [Merck 5],-5.33
11,CN(C)[C@H]\1[C@@H]2[C@@H](O)[C@@H]\3C(=C)C4=C(C(=CC=C4)O)C(=O)C3=C(\O)[C@@]2(O)C(=O)\C(=C1O)C(N)=O [Methacycline hydrochloride],-4.73
12,C[C@]12CCC(=O)C=C1CC[C@@H]1[C@@H]2CC[C@@]2(C)[C@H]1CC[C@]2(C)O [Methyltestosterone],-4.42
13,C\C1=C(\C=C(\C#N)C(=O)N1)C2=CC=NC=C2 [Milrinone],-4.73
14,CN(c1nccc(=O)[nH]1)C1CCN(c2nc3ccccc3n2Cc2ccc(F)cc2)CC1 [Mizolastine],-4.53
15,Nc1ccccc1NC(=O)c1ccc(CNc2nccc(-c3cccnc3)n2)cc1 [Mocetinostat],-5.93
16,O=C(CCCN1CCN(c2ccc(F)cc2)CC1)NC1c2ccccc2CSc2ccccc21 (stereo not drawn) [Monatepil],-5.23
17,N=C(N)NC(=N)N1CCOCC1 [Moroxydine],-4.78
18,Cc1c(C(=O)Nc2ccc(N3C[C@@H](C)O[C@@H](C)C3)nc2)cccc1-c1ccc(OC(F)(F)F)cc1 [NVP-LDE-225],-4.83
19,Oc1nc(-c2ccc(C(F)(F)F)cc2)nc2c1CSCC2 [NVP-XAV-939],-4.68
20,C[C@@H]1C/C=C/C=C/C=C/C=C/[C@@H](O[C@@H]2O[C@H](C)[C@@H](O)[C@H](N)[C@@H]2O)C[C@@H]2O[C@](O)(C[C@@H](O)C[C@@H]3O[C@H]3/C=C/C(=O)O1)C[C@H](O)[C@H]2C(=O)O [Natamycin],-5.23
21,Cl.O[C@@H](CNC[C@H](O)[C@H]1CCc2cc(F)ccc2O1)[C@@H]1CCc2cc(F)ccc2O1 [Nebivolol],-4.93
22,NC(=O)N/N=C/c1ccc([N+](=O)[O-])o1 [Nitrofurazone],-4.68
23,COC(=O)Nc1nc2cc(C(=O)c3cccs3)ccc2[nH]1 [Nocodazole],-7.98
24,O=C(Nc1ccc(OC(F)(F)F)cc1)c1sccc1NCc1ccnc2ccccc12 [OSI-930],-4.73
